In paper PMC12136037, “Type II kinase inhibitors that target Parkinson’s disease–associated LRRK2” (Science Advances, 2025):

Tests used:
Test in all cases: DSF 100 kinase selectivity screen;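 further: compound tested at 20 µM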
Type in all cases: binding
[1] = molecular target: T1, ~100 representative kinases (Homo sapiens, UniProt Q96SB4); settings: Protein SRPK1; DSF; average of three replicates
T1 construct: Recombinant protein kinase domains with a concentration of 2 μM
In short: (§1)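 Each kinase domain, at 2 μM, is mixed with 20 μM test compound and SYPRO Orange in Hepes (20 mM, pH 7.5) with 500 mM NaCl. Temperature is then raised at 3°C/min and fluorescence-monitored unfolding yields the melting temperature change, ΔTm in degrees Celsius.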

[2] = molecular target: T2, ~100 representative kinases (Homo sapiens, UniProt Q99683); settings: protein MAP3K5; average of three replicates
T2 construct: Recombinant protein kinase domains with a concentration of 2 μM
T2 sequence (Q99683 1-1374): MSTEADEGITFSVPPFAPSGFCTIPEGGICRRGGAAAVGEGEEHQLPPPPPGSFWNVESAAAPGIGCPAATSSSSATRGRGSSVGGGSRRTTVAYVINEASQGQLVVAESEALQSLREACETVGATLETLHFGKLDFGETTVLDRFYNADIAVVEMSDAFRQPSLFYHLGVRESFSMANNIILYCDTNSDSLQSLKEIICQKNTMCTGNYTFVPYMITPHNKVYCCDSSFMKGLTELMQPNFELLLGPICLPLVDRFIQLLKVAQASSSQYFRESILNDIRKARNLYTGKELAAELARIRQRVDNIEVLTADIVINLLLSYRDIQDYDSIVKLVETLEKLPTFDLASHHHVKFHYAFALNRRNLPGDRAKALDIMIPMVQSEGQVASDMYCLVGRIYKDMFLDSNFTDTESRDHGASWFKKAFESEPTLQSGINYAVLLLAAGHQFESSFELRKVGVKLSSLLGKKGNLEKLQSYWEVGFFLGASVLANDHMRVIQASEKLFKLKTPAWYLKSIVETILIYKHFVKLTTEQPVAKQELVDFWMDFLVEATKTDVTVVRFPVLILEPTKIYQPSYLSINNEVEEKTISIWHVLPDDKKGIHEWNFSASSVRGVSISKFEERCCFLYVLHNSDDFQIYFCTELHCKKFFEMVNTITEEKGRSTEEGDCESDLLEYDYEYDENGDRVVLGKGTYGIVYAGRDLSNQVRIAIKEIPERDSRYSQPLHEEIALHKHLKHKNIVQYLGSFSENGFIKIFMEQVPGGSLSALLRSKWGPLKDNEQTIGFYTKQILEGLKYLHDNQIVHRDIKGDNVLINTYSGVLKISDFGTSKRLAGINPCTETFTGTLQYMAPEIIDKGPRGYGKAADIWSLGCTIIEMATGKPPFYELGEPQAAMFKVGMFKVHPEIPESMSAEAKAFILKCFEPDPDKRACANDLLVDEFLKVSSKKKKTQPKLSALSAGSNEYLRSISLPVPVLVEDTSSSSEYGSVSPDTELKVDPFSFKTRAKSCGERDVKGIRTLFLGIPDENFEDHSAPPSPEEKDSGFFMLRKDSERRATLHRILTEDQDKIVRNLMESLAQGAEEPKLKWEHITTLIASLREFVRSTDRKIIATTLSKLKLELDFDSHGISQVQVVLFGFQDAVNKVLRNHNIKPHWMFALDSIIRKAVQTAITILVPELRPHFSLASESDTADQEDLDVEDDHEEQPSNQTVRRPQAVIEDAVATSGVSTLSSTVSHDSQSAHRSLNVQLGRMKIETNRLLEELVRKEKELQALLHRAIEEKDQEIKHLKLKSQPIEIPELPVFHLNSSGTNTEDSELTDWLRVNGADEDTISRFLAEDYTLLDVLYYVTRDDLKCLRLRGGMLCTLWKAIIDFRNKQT
In short: as §1

[3] = molecular target: T3, ~100 representative kinases (Homo sapiens, UniProt P24941); settings: Protein CDK2; average of three replicates
T3 construct: Recombinant protein kinase domains with a concentration of 2 μM
In short: as §1

[4] = molecular target: T4, ~100 representative kinases (Homo sapiens, UniProt P54756); settings: Protein EPHA5; average of three replicates
T4 construct: Recombinant protein kinase domains with a concentration of 2 μM
T4 sequence (P54756 25-1037): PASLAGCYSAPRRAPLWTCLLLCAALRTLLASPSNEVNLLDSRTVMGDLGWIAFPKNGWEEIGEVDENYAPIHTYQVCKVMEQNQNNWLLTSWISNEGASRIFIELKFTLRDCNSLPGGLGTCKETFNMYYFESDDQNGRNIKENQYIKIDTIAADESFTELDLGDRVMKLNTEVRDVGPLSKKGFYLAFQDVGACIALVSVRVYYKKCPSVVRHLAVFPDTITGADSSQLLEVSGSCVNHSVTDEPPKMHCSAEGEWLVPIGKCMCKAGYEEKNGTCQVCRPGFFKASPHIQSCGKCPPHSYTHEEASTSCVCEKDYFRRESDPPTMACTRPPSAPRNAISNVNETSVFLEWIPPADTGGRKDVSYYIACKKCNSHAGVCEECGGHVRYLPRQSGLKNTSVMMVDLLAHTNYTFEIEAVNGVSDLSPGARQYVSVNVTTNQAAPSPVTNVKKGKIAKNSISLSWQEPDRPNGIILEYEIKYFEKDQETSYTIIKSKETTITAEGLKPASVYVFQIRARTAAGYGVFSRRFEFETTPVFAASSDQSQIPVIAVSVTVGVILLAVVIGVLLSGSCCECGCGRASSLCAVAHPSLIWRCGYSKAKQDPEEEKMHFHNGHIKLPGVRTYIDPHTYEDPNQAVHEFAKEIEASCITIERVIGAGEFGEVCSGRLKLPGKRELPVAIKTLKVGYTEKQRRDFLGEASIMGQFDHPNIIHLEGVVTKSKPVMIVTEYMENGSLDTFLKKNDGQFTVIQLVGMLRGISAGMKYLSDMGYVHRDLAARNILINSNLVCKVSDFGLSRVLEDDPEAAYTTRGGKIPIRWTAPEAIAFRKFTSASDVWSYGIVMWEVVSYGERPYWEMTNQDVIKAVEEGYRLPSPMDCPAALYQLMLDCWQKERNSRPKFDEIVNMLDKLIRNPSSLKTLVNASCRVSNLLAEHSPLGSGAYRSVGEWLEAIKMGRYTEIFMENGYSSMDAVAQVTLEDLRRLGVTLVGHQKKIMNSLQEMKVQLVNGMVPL
In short: as §1

[5] = molecular target: T5, ~100 representative kinases (Homo sapiens, UniProt Q09013); settings: Protein DMPK1; average of three replicates
T5 construct: Recombinant protein kinase domains with a concentration of 2 μM
T5 sequence (Q09013 1-629): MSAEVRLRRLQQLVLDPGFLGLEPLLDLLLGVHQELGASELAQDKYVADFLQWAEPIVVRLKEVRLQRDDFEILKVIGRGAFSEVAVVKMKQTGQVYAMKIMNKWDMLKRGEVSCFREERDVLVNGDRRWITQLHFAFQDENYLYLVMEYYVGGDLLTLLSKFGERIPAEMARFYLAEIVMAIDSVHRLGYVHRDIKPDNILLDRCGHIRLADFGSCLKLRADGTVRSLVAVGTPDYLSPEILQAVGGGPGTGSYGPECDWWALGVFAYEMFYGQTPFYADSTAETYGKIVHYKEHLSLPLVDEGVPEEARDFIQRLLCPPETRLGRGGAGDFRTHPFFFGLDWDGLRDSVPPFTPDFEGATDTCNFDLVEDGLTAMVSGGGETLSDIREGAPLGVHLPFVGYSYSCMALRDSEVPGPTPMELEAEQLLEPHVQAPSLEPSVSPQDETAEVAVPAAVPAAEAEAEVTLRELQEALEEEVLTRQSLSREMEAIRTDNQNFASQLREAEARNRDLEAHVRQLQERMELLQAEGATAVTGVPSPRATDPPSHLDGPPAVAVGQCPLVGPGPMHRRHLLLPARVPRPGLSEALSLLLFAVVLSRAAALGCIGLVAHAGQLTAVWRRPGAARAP
In short: as §1

[6] = molecular target: T6, ~100 representative kinases (Homo sapiens, UniProt P28482); settings: protein MAPK1; average of three replicates
T6 construct: Recombinant protein kinase domains with a concentration of 2 μM
T6 sequence (P28482 whole entry, the tested form may be a part): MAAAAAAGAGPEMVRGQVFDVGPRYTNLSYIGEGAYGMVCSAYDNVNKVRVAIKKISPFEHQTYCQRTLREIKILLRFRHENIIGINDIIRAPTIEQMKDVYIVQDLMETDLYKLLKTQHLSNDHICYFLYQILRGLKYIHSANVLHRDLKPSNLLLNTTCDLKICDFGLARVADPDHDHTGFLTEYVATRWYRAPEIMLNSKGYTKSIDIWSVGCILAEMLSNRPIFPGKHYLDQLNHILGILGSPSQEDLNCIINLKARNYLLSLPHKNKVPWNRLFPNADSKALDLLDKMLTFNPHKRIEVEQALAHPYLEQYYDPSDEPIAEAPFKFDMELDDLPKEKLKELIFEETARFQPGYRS
In short: as §1

[7] = molecular target: T7, ~100 representative kinases (Homo sapiens, UniProt Q8IU85); settings: Protein CAMK1D; average of three replicates
T7 construct: Recombinant protein kinase domains with a concentration of 2 μM
T7 sequence (Q8IU85 whole entry, the tested form may be a part): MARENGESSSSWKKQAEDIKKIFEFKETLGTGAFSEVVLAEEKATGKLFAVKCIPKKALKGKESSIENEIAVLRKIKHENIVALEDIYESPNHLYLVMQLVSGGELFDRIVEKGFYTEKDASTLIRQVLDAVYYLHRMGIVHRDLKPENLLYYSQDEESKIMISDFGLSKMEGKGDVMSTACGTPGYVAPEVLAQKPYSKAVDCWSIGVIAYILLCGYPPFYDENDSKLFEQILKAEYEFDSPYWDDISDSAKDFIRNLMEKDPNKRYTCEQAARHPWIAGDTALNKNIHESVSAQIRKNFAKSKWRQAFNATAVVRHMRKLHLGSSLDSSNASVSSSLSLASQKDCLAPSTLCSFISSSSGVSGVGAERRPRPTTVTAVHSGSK
In short: as §1

[8] = molecular target: T8, ~100 representative kinases (Homo sapiens, UniProt P49674); settings: Protein CSNK1E; average of three replicates
T8 construct: Recombinant protein kinase domains with a concentration of 2 μM
T8 sequence (P49674 whole entry, the tested form may be a part): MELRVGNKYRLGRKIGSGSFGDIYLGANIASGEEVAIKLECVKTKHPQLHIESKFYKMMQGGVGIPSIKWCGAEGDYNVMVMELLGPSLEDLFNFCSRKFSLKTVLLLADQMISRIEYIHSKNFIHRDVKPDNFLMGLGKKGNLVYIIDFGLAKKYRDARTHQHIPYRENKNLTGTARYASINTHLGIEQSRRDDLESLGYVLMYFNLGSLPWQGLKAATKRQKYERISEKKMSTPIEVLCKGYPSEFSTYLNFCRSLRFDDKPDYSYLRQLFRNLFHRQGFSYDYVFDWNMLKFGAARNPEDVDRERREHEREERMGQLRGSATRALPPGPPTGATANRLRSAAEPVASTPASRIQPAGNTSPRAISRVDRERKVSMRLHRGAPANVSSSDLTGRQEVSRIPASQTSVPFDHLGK
In short: as §1

[9] = molecular target: T9, ~100 representative kinases (Homo sapiens, UniProt P54764); settings: Protein EPHA4; average of three replicates
T9 construct: Recombinant protein kinase domains with a concentration of 2 μM
T9 sequence (P54764 20-986): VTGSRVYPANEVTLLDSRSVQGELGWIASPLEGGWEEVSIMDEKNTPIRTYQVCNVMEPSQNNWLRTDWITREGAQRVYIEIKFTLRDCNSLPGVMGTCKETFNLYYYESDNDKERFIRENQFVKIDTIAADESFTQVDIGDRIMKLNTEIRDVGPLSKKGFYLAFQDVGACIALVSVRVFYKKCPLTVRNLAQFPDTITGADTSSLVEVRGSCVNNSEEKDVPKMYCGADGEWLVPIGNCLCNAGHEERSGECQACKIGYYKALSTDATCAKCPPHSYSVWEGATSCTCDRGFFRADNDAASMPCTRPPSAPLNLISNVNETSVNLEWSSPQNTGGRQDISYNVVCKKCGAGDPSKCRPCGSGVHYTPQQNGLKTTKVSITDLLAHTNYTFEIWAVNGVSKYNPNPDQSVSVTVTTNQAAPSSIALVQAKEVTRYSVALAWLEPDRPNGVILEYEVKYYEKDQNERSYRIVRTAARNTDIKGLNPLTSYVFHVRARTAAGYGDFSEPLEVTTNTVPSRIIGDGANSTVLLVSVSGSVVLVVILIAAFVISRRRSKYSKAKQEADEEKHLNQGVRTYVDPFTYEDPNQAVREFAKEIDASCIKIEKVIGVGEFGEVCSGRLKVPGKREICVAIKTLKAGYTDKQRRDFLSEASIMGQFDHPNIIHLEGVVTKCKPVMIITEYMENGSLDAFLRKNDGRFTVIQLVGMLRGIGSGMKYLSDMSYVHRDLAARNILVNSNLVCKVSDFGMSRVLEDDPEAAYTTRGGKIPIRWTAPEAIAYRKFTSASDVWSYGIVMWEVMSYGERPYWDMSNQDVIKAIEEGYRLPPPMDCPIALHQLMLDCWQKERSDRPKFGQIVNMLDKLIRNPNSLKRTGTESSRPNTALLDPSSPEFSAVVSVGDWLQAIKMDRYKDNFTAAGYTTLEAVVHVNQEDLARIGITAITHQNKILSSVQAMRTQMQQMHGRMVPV
In short: as §1

[10] = molecular target: T10, ~100 representative kinases (Homo sapiens, UniProt O43293); settings: Protein DAPK3; average of three replicates
T10 construct: Recombinant protein kinase domains with a concentration of 2 μM
T10 sequence (O43293 whole entry, the tested form may be a part): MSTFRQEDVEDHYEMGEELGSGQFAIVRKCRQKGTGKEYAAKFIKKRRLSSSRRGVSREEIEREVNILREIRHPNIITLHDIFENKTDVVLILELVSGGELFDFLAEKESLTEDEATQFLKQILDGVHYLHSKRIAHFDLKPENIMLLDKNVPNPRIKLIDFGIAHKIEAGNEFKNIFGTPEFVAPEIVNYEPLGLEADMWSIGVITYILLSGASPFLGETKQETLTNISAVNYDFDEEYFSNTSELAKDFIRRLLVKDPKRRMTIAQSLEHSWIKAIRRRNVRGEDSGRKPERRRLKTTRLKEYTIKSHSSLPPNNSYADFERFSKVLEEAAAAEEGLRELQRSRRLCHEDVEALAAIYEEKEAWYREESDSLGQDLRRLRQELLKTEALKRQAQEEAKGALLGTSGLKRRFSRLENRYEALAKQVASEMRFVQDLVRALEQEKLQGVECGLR
In short: as §1

[11] = molecular target: T11, ~100 representative kinases (Homo sapiens, UniProt P49137); settings: protein MAPKAPK2; average of three replicates
T11 construct: Recombinant protein kinase domains with a concentration of 2 μM
T11 sequence (P49137 whole entry, the tested form may be a part): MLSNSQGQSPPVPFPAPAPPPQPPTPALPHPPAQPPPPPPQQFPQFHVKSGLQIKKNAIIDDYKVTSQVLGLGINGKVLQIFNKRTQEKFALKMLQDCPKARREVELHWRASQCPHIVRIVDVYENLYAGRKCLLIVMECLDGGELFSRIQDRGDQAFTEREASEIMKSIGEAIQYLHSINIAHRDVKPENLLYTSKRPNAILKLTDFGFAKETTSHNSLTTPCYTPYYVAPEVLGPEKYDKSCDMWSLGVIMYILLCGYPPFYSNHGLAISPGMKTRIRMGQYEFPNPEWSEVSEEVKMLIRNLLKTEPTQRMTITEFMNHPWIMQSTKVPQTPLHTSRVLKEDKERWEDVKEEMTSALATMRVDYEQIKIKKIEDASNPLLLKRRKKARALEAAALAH
In short: as §1

T1 sequence (Q96SB4 whole entry, the tested form may be a part): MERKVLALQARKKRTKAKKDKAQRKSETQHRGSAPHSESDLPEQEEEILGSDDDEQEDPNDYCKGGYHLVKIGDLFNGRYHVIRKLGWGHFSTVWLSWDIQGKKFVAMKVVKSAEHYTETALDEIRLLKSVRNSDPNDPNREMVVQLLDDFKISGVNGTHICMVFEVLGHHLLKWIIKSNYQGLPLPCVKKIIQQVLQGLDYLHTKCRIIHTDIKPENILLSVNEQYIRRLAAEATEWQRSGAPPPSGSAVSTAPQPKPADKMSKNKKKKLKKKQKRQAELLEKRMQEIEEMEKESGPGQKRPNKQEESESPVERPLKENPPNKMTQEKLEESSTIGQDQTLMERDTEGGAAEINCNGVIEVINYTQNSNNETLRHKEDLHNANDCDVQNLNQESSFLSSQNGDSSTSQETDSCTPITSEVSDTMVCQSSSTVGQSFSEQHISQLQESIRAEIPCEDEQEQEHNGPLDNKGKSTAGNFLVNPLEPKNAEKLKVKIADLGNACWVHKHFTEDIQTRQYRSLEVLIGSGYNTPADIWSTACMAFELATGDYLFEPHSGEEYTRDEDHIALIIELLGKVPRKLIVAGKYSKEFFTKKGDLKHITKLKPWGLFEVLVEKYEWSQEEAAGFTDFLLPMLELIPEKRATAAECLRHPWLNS

Row | Compound | dTm [1] [K] | dTm [2] [K] | dTm [3] [K] | dTm [4] [K] | dTm [5] [K] | dTm [6] [K] | dTm [7] [K] | dTm [8] [K] | dTm [9] [K] | dTm [10] [K] | dTm [11] [K]
1 | Cc1cc(F)ccc1NC(=O)C1(C(=O)Nc2cccc(-c3c[nH]c4ncnc(N5CCOCC5)c34)c2)CC1 [Compound 24] | 3.79 | 1.15 | 3.87 | 0.97 | -1.04 | -0.19 | -2.03 | 3.91 | 0.68 | 2.09 | -0.55
2 | O=C(Nc1cccc(-c2c[nH]c3ncnc(N4CCOCC4)c23)c1)C1(C(=O)Nc2cc(Br)c(F)cc2F)CC1 [Compound 25] | 4.56 | 2.91 | 3.68 | 1.57 | 0.24 | -0.0637 | 3.75 | 2.14 | 1.97 | 3.02 | 0.00186
3 | O=C(Nc1cccc(-c2c[nH]c3ncnc(N4CCOCC4)c23)c1)C1(C(=O)Nc2ccc(F)c(Br)c2F)CC1 [Compound 26] | 4.06 | 3.03 | 3.97 | 1.29 | -0.0242 | -0.03 | 2.09 | 4.57 | 2.01 | 3.21 | -1.06
4 | O=C(Nc1cc(F)cc(Br)c1)C1(C(=O)Nc2cccc(-c3c[nH]c4ncnc(N5CCOCC5)c34)c2)CC1 [Compound 27] | -0.47 | 3.40 | 4.12 | 0.40 | -0.12 | 0.0359 | 1.52 | 4.18 | 1.53 | 4.42 | 0.07
5 | CC(C)(C)c1cc(NC(=O)Nc2cccc(-c3c[nH]c4ncnc(N5CCOCC5)c34)c2)n(-c2ccc3ncccc3c2)n1 [Compound 28] | 16.05 | 3.36 | 14.76 | 9.59 | -2.53 | 0.09 | 2.13 | 1.81 | 8.59 | 14.79 | 0.51
6 | Cc1ccc(-n2nc(C(C)(C)C)cc2NC(=O)Nc2cccc(-c3c[nH]c4ncnc(N5CCOCC5)c34)c2)cc1 [Compound 29] | 11.63 | 4.49 | 12.74 | 6.71 | -2.09 | -0.31 | 1.72 | 0.48 | 6.97 | 0.00 | -0.55
7 | Cc1ccc(-n2nc(C(C)(C)C)cc2NC(=O)Nc2cccc(-c3c[nH]c4nc(Cl)nc(N5CCOCC5)c34)c2)cc1 [Compound 30] | 4.87 | 1.60 | 1.78 | 0.15 | -0.04 | -0.99 | -0.23 | -2.01 | 1.07 | 6.34 | -0.50
8 | CC(=O)N1CCN(c2nc(Cl)nc3[nH]cc(-c4cccc(NC(=O)Nc5cc(C(C)(C)C)nn5-c5ccc(C)cc5)c4)c23)CC1 [Compound 31] | 7.78 | 1.23 | 2.43 | 1.56 | -0.66 | -0.85 | -0.11 | -1.75 | 2.58 | 6.63 | -0.40
9 | CCSc1nc(NC)c2c(-c3cccc(NC(=O)Nc4cc(C(C)(C)C)nn4-c4ccc(C)cc4)c3)c[nH]c2n1 [Compound 32] | 0.80 | 0.73 | 0.83 | 0.04 | 0.38 | 0.25 | 0.45 | -0.41 | -0.34 | 1.05 | 0.11
10 | COc1cc(C(=O)N2CCOCC2)c(F)cc1Nc1nc(N(C)C)c2c(Cl)c[nH]c2n1 [Compound 36] | 3.22 | 6.66 | -0.66 | -0.96 | 0.30 | 1.60 | 1.95 | 4.43 | -0.69 | 6.29 | 2.68
11 | COc1cc(S(C)(=O)=O)ccc1Nc1nc(N(C)C)c2c(Cl)c[nH]c2n1 [Compound 37] | 0.39 | 1.09 | -0.37 | -0.48 | 0.0114 | 0.14 | 0.49 | 1.77 | -0.37 | 3.62 | 0.98
12 | COc1cc2c(Oc3ccc(NC(=O)C4(C(=O)Nc5ccc(F)cc5)CC4)cc3F)ccnc2cc1OCCCN1CCOCC1 [Foretinib, reference compound] | 7.77 | 2.33 | 0.40 | 11.59 | -0.67 | 0.0844 | 0.45 | 3.48 | 11.16 | 5.00 | 0.33
